Five molecules from patent US10434101B2, “Heterocyclic compounds and uses thereof” (Celgene CAR LLC, priority 2010, dated 2019) can be followed below.

Assay [1] deals with EGFR double mutation L858R/T790M (H1975 cells) (Homo sapiens (Human), UniProt P00533, L858R/T790M). Briefly: Phospho-EGFR signaling (immunoblotting, 1 hr) in H1975 cells. Type of assay: cell-based. The note with it: signaling EC50 WT (A431) / H1975. How it is done:
(§1) A431 human epidermoid carcinoma, H1975 human NSCLC and HCC827 human NSCLC adenocarcinoma cells were obtained from the American Type Culture Center (Manassas, Va.). A431 cells were grown in DMEM (Invitrogen, Carlsbad, Calif.) supplemented with 10% FBS (HyClone, South Logan, Utah) and 1% Penicillin-Streptomycin (P/S, Lonza, Walkersville, Md.).
(§2) All primary antibodies were obtained from Cell Signaling (Danvers, Mass.) and used at 1:1000. Secondary antibodies were used at 1:10,000. Goat anti-mouse IgG IRDye 800CW antibody was obtained from LiCor Biosciences (Lincoln, Nebr.) and goat anti-rabbit IgG Alexa Fluor 680 was obtained from Invitrogen.
(§3) Cells were grown in 12-well plates (Corning, Coring, N.Y.) to 90% confluence and then incubated in low-serum (0.1% FBS) media for 16-18 hr. […] A431 cells were then stimulated with 50 ng/ml EGF (Peprotech, Rocky Hill, N.J.) for 15 min. After treatment, cell monolayers were washed with cold PBS (Invitrogen) and immediately lysed by scrapping into 60 uL cold Cell Extraction Buffer (Invitrogen) supplemented with Complete Protease inhibitors (Roche, Indianapolis, Ind.) and PhosphoSTOP (Roche) phosphatase inhibitors.
(§4) Phospho-protein signals were quantitated using Odyssey Infrared Imaging (Li-Cor Biosciences).
(§5) To assess phosphor-EGFR signaling, blots were probed with rabbit anti-Phospho-EGFR (Y1068) and mouse total anti-EGFR antibodies. Phospho-EGFR signal was normalized to total EGFR expression for each sample. […] Normalized data was fitted using a sigmoidal curve analysis program (Graph Pad Prism version 5) with variable Hill slope to determine the EC50 values.
(In general: Immunoblotting shows a protein as a band on a membrane.)

For assay [2], the target named is EGFR delE746-A750 deletion mutation (HCC827 cells) (Homo sapiens (Human), UniProt P00533, DEL746-750). The experiment in a line: Phospho-EGFR signaling (immunoblotting, 1 hr) in HCC827 cells. The assay is classed as cell-based. The note with it: signaling EC50 WT (A431) / HCC827. As to the method: as §1, §2, §3, §4, §5
Assay [3] deals with A431 cells (WT EGFR). Briefly: Cell proliferation (CellTiter Glo, 72 hr) in A431 cells. The note with it: Homo sapiens. Type of assay: cell-based. As to the method:
as §1
(§6) Cells were plated in Growth Media supplemented with 5% FBS and 1% P/S at a density of 3,000 cells per well in 96 well tissue culture plates (Corning). […] Growth inhibition (GI50) values were determined by Graph Pad Prism.

In assay [4] the test system is H1975 cells (EGFR L858R/T790M). The experiment in a line: Cell proliferation (CellTiter Glo, 72 hr) in H1975 cells. Type of assay: cell-based, human. Particulars: for GI50: Homo sapiens. As to the method: as §1, §6
Background: ATP-based viability assays read luminescence as a measure of living cells.

Assay [5] deals with HCC827 cells (EGFR delE746-A750). The experiment in a line: Cell proliferation (CellTiter Glo, 72 hr) in HCC827 cells. Type of assay: cell-based, human. The note with it: for GI50: Homo sapiens. As to the method:
as §1, §6

Assay [6] has as its target EGFR-WT (Homo sapiens (Human), UniProt P00533). The experiment in a line: Omnia assay, potency against EGFR (WT) active enzyme. Particulars: [EGFR-WT]=5 nM, [ATP]=15 uM, 30 min pre-incubation. The assay is classed as biochemical. How it is done: Kinase reactions were started with the addition of 45 μL of the ATP/Tyr-Sox peptide substrate mix and monitored every 71 seconds for 60 minutes at λex360/λem485 in a Synergy^4 plate reader from BioTek (Winooski, Vt.).

Assay [7] deals with pEGFR in H1975 cells (Homo sapiens (Human), UniProt P00533, L858R/T790M). Briefly: Washout experiment in H1975 cells (pEGFR). Type of assay: cell-based. Particulars: 500 nM for 1 hr; for inhibition at 0.5 µM: NCI-H1975. As to the method:
Washout Experiment in H1975 Cells Containing EGFR Deletion/T790M Mutation
Cells were plated in Growth Media supplemented with 10% FBS and 1% P/S at a density of 2.0×10^5 cells per well in 12 well tissue culture plates. Cells were allowed to settle down for 4 hrs and then maintained in low-serum (0.1% FBS) media overnight.
The following morning the media was removed and the cells were treated with 500 nM test compound in low-serum media for 1 hr. The cells were washed free of compound 2× with PBS (Invitrogen). One set of cells were immediately lysed as indicated above as the 0 hr time point. The remaining cells were incubated with complete RPMI-1640 growth media (10% FBS) for 1, 3, 6 and 24 hr. For the first 1 hr, cells were washed 2× with PBS every 30 min. DMSO (0.5%) controls were collected at the 0, 3, 6 and 24 hr time points.

[8] abbreviates: A-431, A431 cells, 72 hr, read-out: WT EGFR GI50.
Where [9] appears, read: NCI-H1975, H1975 cells, 72 hr, read-out: H1975 GI50.
Where [10] appears, read: HCC827 cells, 72 hr, read-out: HCC827 GI50.

Read-outs that look alike come from different tables or passages of the source. Bounds are passed on as bounds.

For the molecule `C=CC(=O)Nc1cccc(Oc2nc(Nc3ccc(N4CCN(C(=O)OC(C)(C)C)CC4)cc3OC)ncc2Cl)c1` [Compound I-46, tert-butyl 4-(4-(4-(3-acrylamidophenoxy)-5-chloropyrimidin-2-ylamino)-3-methoxyphenyl)piperazine-1-carboxylate], the “Ratio WT/mutant (H1975)” value in assay [1] is listed as >10. In addition, the “Ratio WT/mutant (HCC827)” value in assay [2] is given as >50. Also, the GI50 – broadly, the concentration at which growth is held to half of that of the control – is > 1000 nM in assay [3] (A-431, 72 h, read-out: WT EGFR GI50); 500 to 1000 nM in assay [4] (NCI-H1975, 72 h, read-out: H1975 GI50); 100 to 500 nM in assay [5] (HCC827, 72 h, read-out: HCC827 GI50).
As for `C=CC(=O)Nc1cccc(Nc2nc(Nc3ccc(N4CCOCC4)cc3OC(F)F)ncc2C(F)(F)F)c1` [Compound I-14, N-(3-(2-(2-(difluoromethoxy)-4-morpholinophenylamino)-5-(trifluoromethyl)pyrimidin-4-ylamino)phenyl)acrylamide], the “Ratio WT/mutant (H1975)” value in assay [1] is reported as >15. For the same molecule, the “Ratio WT/mutant (HCC827)” value in assay [2] is listed as >15. Moreover, the GI50 in assay [3] (setting [8]) was > 1000 nM; in assay [4] (setting [9]), 100 to 500 nM; in assay [5] (setting [10]), 10 to 100 nM.
As to `C=CC(=O)Nc1cccc(Nc2nc(Nc3ccc(N4CCOCC4)cc3OC)ncc2Cl)c1` [Compound I-15, N-(3-(5-chloro-2-(2-methoxy-4-morpholinophenylamino)pyrimidin-4-ylamino)phenyl)acrylamide], the IC50 (in general, the concentration that inhibits the measured activity by half) in assay [6] fell in the range of 30 to 100 nM. The GI50 in assay [3] (setting [8]) was > 1000 nM; in assay [4] (setting [9]) it was 500 to 1000 nM; in assay [5] (setting [10]), 100 to 500 nM. For the same molecule, the “Ratio WT/mutant (H1975)” value in assay [4] (proliferation GI50 WT (A431) / H1975) is recorded as >1. Besides, the “Ratio WT/mutant (HCC827)” value in assay [5] (proliferation GI50 WT (A431) / HCC827) is >10.
Turning to `C=CC(=O)Nc1cccc(Nc2nc(Nc3ccc(N4CCOCC4)cc3OC)ncc2C(F)(F)F)c1` [Compound I-2, N-(3-(2-(2-methoxy-4-morpholinophenylamino)-5-(trifluoromethyl)pyrimidin-4-ylamino)phenyl)acrylamide], in assay [1], the “Ratio WT/mutant (H1975)” value is recorded as >50. Moreover, the 50% growth inhibitory concentration (GI50) in assay [3] (setting [8]) is > 1000 nM; in assay [3] (A-431, Table 2, A431 cells express WT EGFR, read-out: Comparative GI50 Values, A431), > 1000 nM; in assay [4] (setting [9]) it was 10 to 100 nM; in assay [4] (NCI-H1975, Table 2, H1975 express EGFR L858R/T790M, read-out: Comparative GI50 Values, H1975) it was 10 to 100 nM; in assay [5] (setting [10]), 10 to 100 nM; in assay [5] (Table 2, HCC827 express EGFR delE746-A750, read-out: Comparative GI50 Values, HCC827), 10 to 100 nM. The pEGFR activity restored in assay [7] (24 h after compound removal, by new protein synthesis) is 40-60%. The inhibition at 0.5 µM lay within 80 to 100% in assay [7] (1 hr after compound removal, read-out: pEGFR phosphorylation inhibited) and 60 to 90% in assay [7] (for at least 8 hours after compound was removed, read-out: pEGFR remained inhibited).
Turning to `C=CC(=O)Nc1cccc(Nc2nc(Nc3ccc(N4CCN(S(C)(=O)=O)CC4)cc3OC)ncc2C(F)(F)F)c1` [Compound I-17, N-(3-(2-(2-methoxy-4-(4-(methylsulfonyl)piperazin-1-yl)phenylamino)-5-(trifluoromethyl)pyrimidin-4-ylamino)phenyl)acrylamide], the “Ratio WT/mutant (H1975)” value in assay [1] is >30. In assay [2], the “Ratio WT/mutant (HCC827)” value is recorded as >5. Also, the concentration for 50% growth inhibition (GI50) in assay [3] (setting [8]) was > 1000 nM; in assay [4] (setting [9]), 100 to 500 nM; in assay [5] (setting [10]), 10 to 100 nM.
